Type in all cases: in vivo
One series relates to DLD-1 xenografts. Briefly: Tumour growth in mice with xenografts. The conditions noted are these: mice with DLD-1 xenografts. The method, then: (§1) The second stage of the study was carried out with the use of animals (Cby.Cg-Foxn1nu/J mice, females) (Jackson Laboratory, USA). […] All procedures were carried out in accordance with the guidelines for experiments in animals and a protocol approved by the Local Ethics Committee (Resolution No. August 2018).
(§2) The studies in in vivo conditions were carried out in the Centre of Experimental Medicine of the Medical University of Bialystok. It is a modern institution which ensures a high standard of SPF barrier animal facilities. Animals are housed in a room with […], in the optimal temperature of 22° C., 55% air humidity, with fifteen air changes per hour (with the speed not exceeding 0.3 m/s) and 12:12 light-dark cycle. The animals were under 24-hour monitoring and period controls of both the animals (in accordance with FELASA recommendations) and the rooms in which they were housed were carried out. The Centre for Experimental Medicine has a Good Laboratory Practice (GLP) certificate.
(§3) During the initial studies the mice were divided into two groups.
(§4) After the first week, when tumours reached about 5 mm in diameter, i.e. the size which according to literature data is suitable for carrying out further steps of examination, the mice began receiving subcutaneous injections of the sulfonamide derivative of 7-methyl-5-phenyl-pyrazolo[4,3-e]tetrazolo[4,5-b][1,2,4]triazine comprising 4-hydroxy-L-proline methyl ester in the sulfonamide group according to the invention (the compound of Formula 3) in a dose of 50 μg/kg once a day for two weeks. The moment of administration of the compound was marked as time 0. The control group was constituted by animals that received subcutaneously 50 μl of 10% DMSO in PBS (the solvent for the compound of Formula 3). Before the administration of the sulfonamide derivative of 7-methyl-5-phenyl-pyrazolo[4,3-e]tetrazolo[4,5-b][1,2,4]triazine comprising 4-hydroxy-L-proline methyl ester in the sulfonamide group according to the invention (time 0), after the first week (time 1) and the second week (time 2) of administering this compound, the sizes of tumours were measured in two dimensions by means of a digital calliper. The volume of tumours was expressed in mm3 in accordance with the calculations that were described by Feldman et al. (Feldman J P. Goldwasser R. Mark S. Schwartz J. Orion I. JAQM. 2009.4.455-462).

A further series has as its system HT-29 xenografts. Briefly: Tumour growth in mice with xenografts. To be noted: mice with HT-29 xenografts. The method, then: as §1, §2, §3, §4
Series [1] is described as follows: Haematological analysis of xenograft mice after two-week therapy. The conditions noted are these: mice with DLD-1 and HT-29 xenografts, 50 μg/kg s.c. once a day. The method, then: as §1
as §4, with “The control group was constituted by animals that received subcutaneously 50 μl of 10% DMSO in PBS (the solvent for the compound of Formula 3).” left out, “The volume of tumours was expressed in mm3 in accordance with the calculations that were described by Feldman et al. (Feldman J P. Goldwasser R. Mark S. Schwartz J. Orion I. JAQM. 2009.4.455-462).” left out

Series [2] in a line: Body weight of xenograft mice after two-week therapy. The conditions noted are these: mice with DLD-1 and HT-29 xenografts, 50 μg/kg s.c. once a day. As for the experimental part: as §1
as §4, with “The control group was constituted by animals that received subcutaneously 50 μl of 10% DMSO in PBS (the solvent for the compound of Formula 3).” left out, “The volume of tumours was expressed in mm3 in accordance with the calculations that were described by Feldman et al. (Feldman J P. Goldwasser R. Mark S. Schwartz J. Orion I. JAQM. 2009.4.455-462).” left out
Additionally, the effect of the compound of Formula 3 on the body weight of the animals after the two-week therapy was assessed.

Setting [3] is: 50 μg/kg s.c. once a day for two weeks, p<0.05.
The mark [4] stands for this setting: 50 μg/kg s.c. once a day, after the second week, p<0.001.

As for `COC(=O)C1CC(O)CN1S(=O)(=O)c1ccc(-n2nc(C)c3nc4nnnn4nc32)cc1` (stereo not drawn) [Compound of Formula 3, Methyl 4-hydroxy-1-[4-(7-methyl-5H-pyrazolo[4,3-e]tetrazolo[4,5-b][1,2,4]triazyn-5-yl)phenylsulfonyl]pyrrolidine-2-carboxylate], the “tumour weight post mortem vs control” value in the series on DLD-1 xenografts (setting [3]) and with HT-29 xenografts (setting [3]) was “Statistically significant reduction in tumour weight” in each case. For the same molecule, the “inhibition of tumour growth (tumour volume) vs control” value with DLD-1 xenografts (setting [4]) and with HT-29 xenografts (setting [4]) was “statistically significant inhibition of tumour growth” each time. Also, the “haematological parameters (WBC, RBC, PLT, HCT, HGB, MCV, MCH, MCHC)” value in series [1] is recorded as “did not reveal any statistically significant changes”. For the same molecule, the “effect on body weight of the animals vs control” value in series [2] is “No significant differences”.
